Data published in patent US8846933B2, “N-link hydroxamic acid derivatives useful as antibacterial agents” (Pfizer Inc., priority 2009, dated 2014).

Experiments:
[1] = system: Pseudomonas aeruginosa UI-18: Wild-type (PA-7); experiment: MIC determination (CLSI), strain PA-7; assay type: cell-based; conditions: strain PA-7, unit assumed
Procedure, shortened: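 MIC determined by broth dilution per CLSI M7-A7 guidelines with M100-S18 interpretive standards. Test organism: wild-type Pseudomonas aeruginosa UI-18, designated PA-7.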

[2] = system: Escherichia coli EC-1: VOGEL, mouse virulent; experiment: MIC determination (CLSI), strain EC-1; assay type: cell-based; conditions: strain EC-1, unit assumed
Procedure, shortened: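 The mouse-virulent VOGEL isolate of E. coli, EC-1, served as test organism. Minimum inhibitory concentration was measured by CLSI dilution methodology (M7-A7; M100-S18 standards).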

[3] = generated in the same manner as in Table 4

Row | Structure (SMILES) | PA-7 (MIC) [1] [µg/mL] | EC-1 (MIC) [2] [µg/mL] | PA-7 (MIC) [1, 3] [µg/mL] | EC-1 (MIC) [2, 3] [µg/mL]
1 | C[C@@](CCn1ccc(-c2ccc(OCC3CCN(C(=O)CO)CC3)cc2)cc1=O)(C(=O)NO)S(C)(=O)=O [Example 311, (2R)-4-[4-{4-[(1-glycoloylpiperidin-4-yl)methoxy]phenyl}-2-oxopyridin-1(2H)-yl]-N-hydroxy-2-methyl-2-(methylsulfonyl)butanamide] | 4 | 1 | – | –
2 | Cc1c(-c2ccc(C#N)cc2F)ccn(CC[C@](C)(C(=O)NO)S(C)(=O)=O)c1=O [Example 412, (2R)-4-[4-(4-cyano-2-fluorophenyl)-3-methyl-2-oxopyridin-1(2H)-yl]-N-hydroxy-2-methyl-2-(methylsulfonyl)butanamide] | 4 | 8 | – | –
3 | CC(C#N)Sc1cccc(-c2ccn(CC[C@](C)(C(=O)NO)S(C)(=O)=O)c(=O)c2)c1 (stereo partly shown) [Example 475] | 8 | 8 | – | –
4 | CC(CCn1ccc(-c2ccc(CC#N)cc2)cc1=O)(C(=O)NO)S(C)(=O)=O (stereo not shown) [Example 129, 4-{4-[4-(cyanomethyl)phenyl]-2-oxopyridin-1(2H)-yl}-N-hydroxy-2-methyl-2-(methylsulfonyl)butanamide] | – | – | 32 | 2
5 | CC(CCn1ccc(-c2ccc(OCCCO)cc2F)cc1=O)(C(=O)NO)S(C)(=O)=O (stereo not shown) [Example 250, 4-{4-[2-fluoro-4-(3-hydroxypropoxy)phenyl]-2-oxopyridin-1(2H)-yl}-N-hydroxy-2-methyl-2-(methylsulfonyl)butanamide] | 4 | 2 | – | –
6 | CC(CCn1ccc(-c2ccco2)cc1=O)(C(=O)NO)S(C)(=O)=O (stereo not shown) [Example 175, 4-[4-(2-furyl)-2-oxopyridin-1(2H)-yl]-N-hydroxy-2-methyl-2-(methylsulfonyl)butanamide] | – | – | 16 | 64
7 | Cc1cc(F)cc(-c2ccn(CCC(C)(C(=O)NO)S(C)(=O)=O)c(=O)c2)c1 (stereo not shown) [Example 112, 4-[4-(3-fluoro-5-methylphenyl)-2-oxopyridin-1(2H)-yl]-N-hydroxy-2-methyl-2-(methylsulfonyl)butanamide] | – | – | 4 | 4
8 | CC(C)(C)NC(=O)c1cncc(-c2ccn(CCC(C)(C(=O)NO)S(C)(=O)=O)c(=O)c2)c1 (stereo not shown) [Example 154, N-tert-butyl-1′-[4-(hydroxyamino)-3-methyl-3-(methylsulfonyl)-4-oxobutyl]-2′-oxo-1′,2′-dihydro-3,4′-bipyridine-5-carboxamide] | – | – | > 64 | > 64
9 | C[C@@](CCn1ccc(-c2ccc(OCCN3CCC(O)CC3)c(Cl)c2Cl)cc1=O)(C(=O)NO)S(C)(=O)=O [Example 303, (2R)-4-[4-{2,3-dichloro-4-[2-(4-hydroxypiperidin-1-yl)ethoxy]phenyl}-2-oxopyridin-1(2H)-yl]-N-hydroxy-2-methyl-2-(methylsulfonyl)butanamide] | 16 | 32 | – | –
10 | CC(CCn1ccc(-c2ccsc2)cc1=O)(C(=O)NO)S(C)(=O)=O (stereo not shown) [Example 107, N-hydroxy-2-methyl-2-(methylsulfonyl)-4-[2-oxo-4-(3-thienyl)pyridin-1(2H)-yl]butanamide] | – | – | 16 | 32
11 | CC(C)Oc1ncccc1-c1ccn(CCC(C)(C(=O)NO)S(C)(=O)=O)c(=O)c1 (stereo not shown) [Example 168, N-hydroxy-4-(2-isopropoxy-2′-oxo-3,4′-bipyridin-1′(2′H)-yl)-2-methyl-2-(methylsulfonyl)butanamide] | – | – | > 64 | > 64
12 | Cc1cccc(-c2ccn(CCC(C)(C(=O)NO)S(C)(=O)=O)c(=O)c2)c1 (stereo not shown) [Example 178, N-hydroxy-2-methyl-4-[4-(3-methylphenyl)-2-oxopyridin-1(2H)-yl]-2-(methylsulfonyl)butanamide] | – | – | 2 | 4
13 | CC(CCn1ccc(-c2cc(Cl)ccc2F)cc1=O)(C(=O)NO)S(C)(=O)=O (stereo not shown) [Example 150, 4-[4-(5-chloro-2-fluorophenyl)-2-oxopyridin-1(2H)-yl]-N-hydroxy-2-methyl-2-(methylsulfonyl)butanamide] | – | – | 4 | 4
14 | CC(=O)c1ccc(-c2ccn(CCC(C)(C(=O)NO)S(C)(=O)=O)c(=O)c2)s1 (stereo not shown) [Example 167, 4-[4-(5-acetyl-2-thienyl)-2-oxopyridin-1(2H)-yl]-N-hydroxy-2-methyl-2-(methylsulfonyl)butanamide] | – | – | 16 | 16
15 | COc1cccc(-c2ccn(CCC(C)(C(=O)NO)S(C)(=O)=O)c(=O)c2)c1F (stereo not shown) [Example 90] | – | – | 2 | 0.5
16 | CC(CCn1ccc(-c2ccncc2)cc1=O)(C(=O)NO)S(C)(=O)=O (stereo not shown) [Example 218, N-hydroxy-2-methyl-2-(methylsulfonyl)-4-(2-oxo-4,4′-bipyridin-1(2H)-yl)butanamide] | 64 | > 64 | – | –

Row | Structure (SMILES) | PA-7 (MIC) [1] [µg/mL] | EC-1 (MIC) [2] [µg/mL] | PA-7 (MIC) [1, 3] [µg/mL] | EC-1 (MIC) [2, 3] [µg/mL]
17 | C[C@@](CCn1ccc(-c2ccc(-n3nccn3)cc2F)cc1=O)(C(=O)NO)S(C)(=O)=O [Example 372] | 2 | 0.06 | – | –
18 | C[C@@](CCn1ccc(-c2ccc3cc(N4CCC(O)CC4)ccc3c2)cc1=O)(C(=O)NO)S(C)(=O)=O [Example 381, (2R)-N-hydroxy-4-{4-[6-(4-hydroxypiperidin-1-yl)-2-naphthyl]-2-oxopyridin-1(2H)-yl}-2-methyl-2-(methylsulfonyl)butanamide] | 16 | 1 | – | –
19 | CC(CCn1ccc(-c2ccc3cc(OCCCO)ccc3c2)cc1=O)(C(=O)NO)S(C)(=O)=O (stereo not shown) [Example 274, N-hydroxy-4-{4-[6-(3-hydroxypropoxy)-2-naphthyl]-2-oxopyridin-1(2H)-yl}-2-methyl-2-(methylsulfonyl)butanamide] | 2 | 0.25 | – | –
20 | C[C@@](CCn1ccc(-c2cc(F)ccc2Cl)cc1=O)(C(=O)NO)S(C)(=O)=O [Example 392, (2R)-4-[4-(2-chloro-5-fluorophenyl)-2-oxopyridin-1(2H)-yl]-N-hydroxy-2-methyl-2-(methylsulfonyl)butanamide] | 8 | 16 | – | –
21 | C[C@@](CCn1ccc(-c2ccc(-c3cocn3)cc2)cc1=O)(C(=O)NO)S(C)(=O)=O [Example 389, (2R)-N-hydroxy-2-methyl-2-(methylsulfonyl)-4-{4-[4-(1,3-oxazol-4-yl)phenyl]-2-oxopyridin-1(2H)-yl}butanamide] | 1 | 1 | – | –
22 | CC(CCn1ccc(-c2ccc(-c3cc(CO)no3)cc2)cc1=O)(C(=O)NO)S(C)(=O)=O (stereo not shown) [Example 95, N-hydroxy-4-[4-{4-[3-(hydroxymethyl)isoxazol-5-yl]phenyl}-2-oxopyridin-1(2H)-yl]-2-methyl-2-(methylsulfonyl)butanamide] | – | – | 8 | 8
23 | C[C@@](CCn1ccc(-c2ccc(-c3ncns3)cc2)cc1=O)(C(=O)NO)S(C)(=O)=O [Example 419, (2R)-N-hydroxy-2-methyl-2-(methylsulfonyl)-4-{2-oxo-4-[4-(1,2,4-thiadiazol-5-yl)phenyl]pyridin-1(2H)-yl}butanamide] | 1 | 0.25 | – | –
24 | COc1cccc(-c2ccn(CC[C@](C)(C(=O)NO)S(C)(=O)=O)c(=O)c2)c1C [Example 468] | 2 | 2 | – | –
25 | Cc1ccc(N)cc1-c1ccn(CCC(C)(C(=O)NO)S(C)(=O)=O)c(=O)c1 (stereo not shown) [Example 108, 4-[4-(5-amino-2-methylphenyl)-2-oxopyridin-1(2H)-yl]-N-hydroxy-2-methyl-2-(methylsulfonyl)butanamide] | – | – | > 64 | > 64
26 | CC(CCn1ccc(-c2ccc3[nH]cc(CCO)c3c2)cc1=O)(C(=O)NO)S(C)(=O)=O (stereo not shown) [Example 263, N-hydroxy-4-{4-[3-(2-hydroxyethyl)-1H-indol-5-yl]-2-oxopyridin-1(2H)-yl}-2-methyl-2-(methylsulfonyl)butanamide] | > 64 | 8 | – | –
27 | CC(CCn1ccc(-c2ccc(-c3ccccc3)c(F)c2)cc1=O)(C(=O)NO)S(C)(=O)=O (stereo not shown) [Example 197, 4-[4-(2-fluorobiphenyl-4-yl)-2-oxopyridin-1(2H)-yl]-N-hydroxy-2-methyl-2-(methylsulfonyl)butanamide] | 2 | 0.25 | – | –
28 | C[C@@](CCn1ccc(-c2ccc(OCCC(O)CO)cc2)cc1=O)(C(=O)NO)S(C)(=O)=O (stereo partly drawn) [Example 366, (2R)-4-{4-[4-(3,4-dihydroxybutoxy)phenyl]-2-oxopyridin-1(2H)-yl}-N-hydroxy-2-methyl-2-(methylsulfonyl)butanamide] | 16 | 16 | – | –
29 | C[C@@](CCn1ccc(-c2ccc(-c3ncc(Cl)cn3)cc2)cc1=O)(C(=O)NO)S(C)(=O)=O [Example 458, (2R)-4-{4-[4-(5-chloropyrimidin-2-yl)phenyl]-2-oxopyridin-1(2H)-yl}-N-hydroxy-2-methyl-2-(methylsulfonyl)butanamide] | 0.5 | 0.06 | – | –
30 | CC(CCn1ccc(-c2cccc(OCCCO)c2F)cc1=O)(C(=O)NO)S(C)(=O)=O (stereo not shown) [Example 307, 4-{4-[2-fluoro-3-(3-hydroxypropoxy)phenyl]-2-oxopyridin-1(2H)-yl}-N-hydroxy-2-methyl-2-(methylsulfonyl)butanamide] | 16 | 16 | – | –
31 | CC(CCn1ccc(-c2ccc(OCCCCO)c(F)c2)cc1=O)(C(=O)NO)S(C)(=O)=O (stereo not shown) [Example 240, 4-{4-[3-fluoro-4-(4-hydroxybutoxy)phenyl]-2-oxopyridin-1(2H)-yl}-N-hydroxy-2-methyl-2-(methylsulfonyl)butanamide] | 4 | 1 | – | –
32 | CC(CCn1ccc(-c2cccc(O)c2)cc1=O)(C(=O)NO)S(C)(=O)=O (stereo not shown) [Example 210, N-hydroxy-4-[4-(3-hydroxyphenyl)-2-oxopyridin-1(2H)-yl]-2-methyl-2-(methylsulfonyl)butanamide] | > 64 | > 64 | – | –
